The values that follow come from PMC7006954 (Journal of medicinal chemistry, 2016).

The target in test [1] is T1, human CD4 (CD4-YFP) expression in CHO•CD4-YFP cells (Homo sapiens, UniProt P01730). To be noted: read-out: IC50 (CD4 down-modulation); cited from earlier work.
Test [2] concerns the target T1, human CD4 (CD4-YFP) expression in CHO•CD4-YFP cells. Put plainly: CD4 down-modulation in CHO cells stably expressing CD4-YFP. The format is cell-based. To be noted: for DC50: read-out: IC50 CD4 (μM) mean ± SD, 50% down-modulation of CD4 expression, 24 h drug treatment.
Where [3] appears, read: stably CD4-YFP transfected CHO cells, n = 3, cyclohexylmethyl-tailed compounds.
[4] abbreviates: CD4-YFP transfected CHO cells, n ≥ 3, benzyl-tailed compounds.

SMILES strings stand for the structures. Read-outs that look alike come from different tables or passages of the source.

In general, IC50 refers to the concentration at which inhibition is half-maximal. Consider `C=C1CN(S(=O)(=O)c2ccc(C)cc2)CCCN(Cc2ccccc2)CCCN(S(=O)(=O)c2ccc(C)cc2)C1` [CADA, Cyclotriazadisulfonamide], for which the IC50 in test [1] was 400 nM.

With `C=C1CN(S(=O)(=O)c2ccc(C)cc2)CCCN(CC2CCCCC2)CCCN(S(=O)(=O)c2ccc(OC)cc2)C1` [Compound 1, reference compound], the DC50 in test [2] (setting [3]) is 0.15 ± 0.01 µM. Consider `C=C1CN(S(=O)(=O)c2ccccc2)CCCN(Cc2ccccc2)CCCN(S(=O)(=O)c2ccc(C)cc2)C1` [Compound 25, 1-(benzenesulfonyl)-9-benzyl-3-methylene-5-(p-toluenesulfonyl)-1,5,9-triazacyclododecane], for which, in test [2] (setting [4]), the DC50 came to 1.46 ± 0.05 µM. Same read-out and setting: with `C=C1CN(S(=O)(=O)c2ccc(C)cc2)CCCN(Cc2ccccc2)CCCN(S(=O)(=O)c2ccc3ccccc3c2)C1` [Compound 26] the figure was 0.55 ± 0.17 µM. Same read-out and setting: with `C=C1CN(S(=O)(=O)c2ccc(C)cc2)CCCN(Cc2ccccc2)CCCN(S(=O)(=O)c2ccc([N+](=O)[O-])cc2)C1` [Compound 27] the figure was 5.25 ± 1.1 µM. With `C=C1CN(S(=O)(=O)c2ccc(C)cc2)CCCN(Cc2ccccc2)CCCN(S(=O)(=O)c2ccccc2[N+](=O)[O-])C1` [Compound 28], the DC50 in test [2] (setting [4]) stood at 0.7 ± 0.09 µM. On the same count and under the same terms, with `C=C1CN(S(=O)(=O)c2ccc(C)cc2)CCCN(Cc2ccccc2)CCCN(S(=O)(=O)c2ccc(OC(F)(F)F)cc2)C1` [Compound 29] the figure was 1.2 ± 0.01 µM; with `C=C1CN(S(=O)(=O)c2ccc(C)cc2)CCCN(Cc2ccccc2)CCCN(S(=O)(=O)c2ccc(OC)cc2OC)C1` [Compound 30], 1.35 ± 0.3 µM; with `C=C1CN(S(=O)(=O)c2ccc(C)cc2)CCCN(Cc2ccccc2)CCCN(S(=O)(=O)c2ccc(OC)c(OC)c2)C1` [Compound 31], 0.31 ± 0.06 µM. Turning to `C=C1CN(S(=O)(=O)c2ccc(C)cc2)CCCN(Cc2ccccc2)CCCN(S(=O)(=O)c2ccc(N(C)C)cc2)C1` [Compound 32], the DC50 in test [2] (setting [4]) came out at 0.17 ± 0.08 µM. As to `C=C1CN(S(=O)(=O)c2ccc(C)cc2)CCCN(Cc2ccccc2)CCCN(S(=O)(=O)c2ccc3c(c2)OCO3)C1` [Compound 33], the DC50 in test [2] (setting [4]) is 1.06 ± 0.12 µM. For the compound `C=C1CN(S(=O)(=O)c2ccc(C)cc2)CCCN(Cc2ccccc2)CCCN(S(=O)(=O)c2cccc([N+](=O)[O-])c2)C1` [Compound 34], the DC50 in test [2] (setting [4]) came to 2.02 ± 0.29 µM. On the same count and under the same terms, with `C=C1CN(S(=O)(=O)c2ccc(C)cc2)CCCN(Cc2ccccc2)CCCN(S(=O)(=O)N(C)C)C1` [Compound 35] the figure was 1.58 ± 0.2 µM; with `C=C1CN(S(=O)(=O)c2ccc(C)cc2)CCCN(Cc2ccccc2)CCCN(S(=O)(=O)c2ccn(C)c2)C1` [Compound 36], 3.17 ± 0.64 µM.

As to `C=C1CN(S(=O)(=O)c2ccc(C)cc2)CCCN(Cc2ccccc2)CCCN(S(=O)(=O)c2ccc(F)cc2)C1` [Compound 37], in test [2] (setting [4]), the DC50 came out at 0.92 ± 0.11 µM. On to `C=C1CN(S(=O)(=O)c2ccc(C)cc2)CCCN(Cc2ccccc2)CCCN(S(=O)(=O)c2cccc(N(C)C)c2)C1` [Compound 38], for which the DC50 in test [2] (setting [4]) came out at 0.79 ± 0.1 µM. Regarding `C=C1CN(S(=O)(=O)c2ccc(C)cc2)CCCN(CC2CCCCC2)CCCN(S(=O)(=O)c2ccc(OCCCC)cc2)C1` [Compound 39, 1-(p-Butoxybenzenesulfonyl)-9-cyclohexylmethyl-3-methylene-5-(p-toluenesulfonyl)-1,5,9-triazacyclododecane], the DC50 in test [2] (setting [3]) stood at 1.1 ± 0.13 µM. The same measure, in the same setting: to `C=C1CN(S(=O)(=O)c2ccc(C)cc2)CCCN(CC2CCCCC2)CCCN(S(=O)(=O)c2ccc(N(C)C)cc2)C1` [Compound 40, 9-Cyclohexylmethyl-1-(p-(dimethylamino)benzenesulfonyl)-3-methylene-5-(p-toluenesulfonyl)-1,5,9-triazacyclododecane] belongs 0.063 ± 0.005 µM. Consider `C=C1CN(S(=O)(=O)c2ccc(C)cc2)CCCN(Cc2ccccc2)CCCN(S(=O)(=O)c2ccc(SC)cc2)C1` [Compound 41, 9-Benzyl-3-methylene-1-(p-thiomethoxybenzenesulfonyl)-5-(p-toluenesulfonyl)-1,5,9-triazacyclododecane], for which the DC50 in test [2] (setting [4]) turned out to be 0.23 ± 0.05 µM.

Take `C=C1CN(S(=O)(=O)c2ccc(C)cc2)CCCN(Cc2ccccc2)CCCN(S(=O)(=O)c2ccccc2N)C1` [Compound 43]: in test [2] (setting [4]), the DC50 came out at 2.12 ± 0.39 µM. On the same count and under the same terms, to `C=C1CN(S(=O)(=O)c2ccc(C)cc2)CCCN(Cc2ccccc2)CCCN(S(=O)(=O)c2cccc(N)c2)C1` [Compound 44] belongs 1.02 ± 0.09 µM; to `C=C1CN(S(=O)(=O)c2ccc(C)cc2)CCCN(Cc2ccccc2)CCCN(S(=O)(=O)c2ccc(N)cc2)C1` [Compound 45], 2.42 ± 0.42 µM.

Turning to `C=C1CN(S(=O)(=O)c2ccc(C)cc2)CCCN(CC2CCCCC2)CCCN(S(=O)(=O)c2ccc(N)cc2)C1` [Compound 46], the DC50 in test [2] (setting [3]) is 1 ± 0.15 µM. On the same count and under the same terms, with `C=C1CN(S(=O)(=O)c2ccc(C)cc2)CCCN(CC2CCCCC2)CCCN(S(=O)(=O)c2ccc(-n3cccc3)cc2)C1` [Compound 47] the figure was 0.18 ± 0.01 µM; with `C=C1CN(S(=O)(=O)c2ccc(C)cc2)CCCN(CC2CCCCC2)CCCN(S(=O)(=O)c2ccc(N3CCOCC3)cc2)C1` [Compound 48], 0.13 ± 0.01 µM. `C=C1CNCCCN(Cc2ccccc2)CCCN(S(=O)(=O)c2ccc(C)cc2)C1` [Compound 49, 9-Benzyl-3-methylene-1-(p-toluenesulfonyl)-1,5,9-triazacyclododecane]: the DC50 in test [2] (setting [4]) was more than 50 µM. With `C=C1CN(S(=O)(=O)c2ccc(C)cc2)CCCN(Cc2ccccc2)CCCN(S(=O)(=O)c2ccc(OC)cc2)C1` [Compound 50, reference compound], the DC50 in test [2] (setting [4]) was 0.29 ± 0.09 µM. Turning to `C=C1CN(S(=O)(=O)c2ccc(C)cc2)CCCN(CC2CCCCC2)CCCN(S(=O)(=O)c2ccc(O)cc2)C1` [Compound 51, 9-Cyclohexylmethyl-1-(p-hydroxybenzenesulfonyl)-3-methylene-5-(p-toluenesulfonyl)-1,5,9-triazacyclododecane], in test [2] (setting [3]), the DC50 came out at 1.14 ± 0.02 µM. For `C=C1CN(S(=O)(=O)c2ccc(C)cc2)CCCN(CC2CCCCC2)CCCN(S(=O)(=O)c2ccc(OCC)cc2)C1` [Compound 52], the DC50 in test [2] (setting [3]) stood at 0.19 ± 0.01 µM. Same read-out and setting: to `C=C1CN(S(=O)(=O)c2ccc(C)cc2)CCCN(CC2CCCCC2)CCCN(S(=O)(=O)c2ccc(OCCCN3C(=O)c4ccccc4C3=O)cc2)C1` [Compound 53] belongs 0.75 ± 0.06 µM; to `C=C1CN(S(=O)(=O)c2ccc(C)cc2)CCCN(CC2CCCCC2)CCCN(S(=O)(=O)c2ccc(OCCCN)cc2)C1` [Compound 54], more than 50 µM. For `C=C1CN(S(=O)(=O)c2ccc(C)cc2)CCCN(Cc2ccccc2)CCCN(S(=O)(=O)c2ccc(O)cc2)C1` [Compound 55], in test [2] (setting [4]), the DC50 amounted to 3.58 ± 0.54 µM. For `C#CCOc1ccc(S(=O)(=O)N2CCCN(Cc3ccccc3)CCCN(S(=O)(=O)c3ccc(C)cc3)CC(=C)C2)cc1` [Compound 56], the DC50 in test [2] (setting [4]) is 0.46 ± 0.07 µM. Take `C=C1CN(S(=O)(=O)c2ccc(C)cc2)CCCN(Cc2ccccc2)CCCN(S(=O)(=O)c2ccc(OC(=S)N(C)C)cc2)C1` [Compound 57]: in test [2] (setting [4]), the DC50 came to 6.28 ± 2.04 µM. Still for that read-out and setting: with `C=C1CN(C(=O)c2ccc(OC)cc2)CCCN(Cc2ccccc2)CCCN(S(=O)(=O)c2ccc(C)cc2)C1` [Compound 58, 9-benzyl-3-methylene-5-(p-methoxybenzoyl)-1-(p-toluenesulfonyl)-1,5,9-triazacyclododecane] the figure was 4.22 ± 0.84 µM; with `C=C1CN(C(=O)c2ccc(C)cc2)CCCN(Cc2ccccc2)CCCN(S(=O)(=O)c2ccc(C)cc2)C1` [Compound 59], 3.78 ± 2.38 µM; with `C=C1CN(C(=O)c2ccc([N+](=O)[O-])cc2)CCCN(Cc2ccccc2)CCCN(S(=O)(=O)c2ccc(C)cc2)C1` [Compound 60], more than 50 µM. The same measure, in the same setting: to `C=C1CN(C(=O)c2ccccc2)CCCN(Cc2ccccc2)CCCN(S(=O)(=O)c2ccc(C)cc2)C1` [Compound 61] belongs 7.32 ± 1.7 µM.

With `C=C1CN(C(=O)c2ccc(N)cc2)CCCN(Cc2ccccc2)CCCN(S(=O)(=O)c2ccc(C)cc2)C1.Cl` [Compound 62], the “percentage CD4 down-modulation measured at highest (50 μM) compound concentration” value in test [2] (50 μM compound, CD4-YFP transfected CHO cells, 24 h) was found to be 15%. In addition, the DC50 in test [2] (setting [4]) was more than 50 µM. In the case of `C=C1CN(S(=O)(=O)c2ccc(C)cc2)CCCN(Cc2ccccc2)CCCN(S(=O)(=O)N2CCOCC2)C1` [Compound 63], the DC50 in test [2] (setting [4]) was determined as 1.08 ± 0.1 µM.
